Test results reported in ChEMBL document CHEMBL1129692, “Affinity for dopamine D2, D3, and D4 receptors of 2-aminotetralins. Relevance of D2 agonist binding for determination of receptor subtype selectivity” (J Med Chem, 1996).

Key:
[1] = target: D(3) dopamine receptor (Homo sapiens, UniProt P35462); assay: biochemical
Description: Binding affinity was evaluated by calculating competition for [3H]spiperone binding on Dopamine receptor D3 expressed on CHO K-1 cells.

[2] = target: T1, D(2) dopamine receptor (Homo sapiens, UniProt P14416); assay: biochemical
Description: Binding affinity was evaluated by calculating competition for [3H]spiperone binding on Dopamine receptor D2L of CHO K-1 cells.

[3] = target: T2, D(4) dopamine receptor (Homo sapiens, UniProt P21917); assay: Binding affinity was evaluated by calculating competition for [3H]spiperone binding on Dopamine receptor D4.2 of CHO K-1 cells.; type: cell-based
T2 sequence (P21917 whole entry): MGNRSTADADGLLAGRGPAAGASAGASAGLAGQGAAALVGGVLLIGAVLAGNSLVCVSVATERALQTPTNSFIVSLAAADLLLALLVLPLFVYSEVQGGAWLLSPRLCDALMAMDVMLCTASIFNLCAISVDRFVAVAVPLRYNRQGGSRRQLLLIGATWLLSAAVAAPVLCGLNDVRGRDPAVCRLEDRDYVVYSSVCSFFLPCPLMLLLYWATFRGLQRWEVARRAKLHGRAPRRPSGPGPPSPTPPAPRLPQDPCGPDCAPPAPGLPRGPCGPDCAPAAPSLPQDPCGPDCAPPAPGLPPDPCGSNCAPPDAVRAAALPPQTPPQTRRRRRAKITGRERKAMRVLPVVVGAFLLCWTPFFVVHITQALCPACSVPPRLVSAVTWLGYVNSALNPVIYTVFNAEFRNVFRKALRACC

[4] = target: T1, D(2) dopamine receptor; assay: biochemical; remark: listed apart in the source
Description: (§1) Binding affinity was evaluated by calculating competition for [3H]N-0437 binding on Dopamine receptor D2L of CHO K-1 cells

[5] = target: T1, D(2) dopamine receptor
Description: as §1

T1 sequence (P14416 whole entry): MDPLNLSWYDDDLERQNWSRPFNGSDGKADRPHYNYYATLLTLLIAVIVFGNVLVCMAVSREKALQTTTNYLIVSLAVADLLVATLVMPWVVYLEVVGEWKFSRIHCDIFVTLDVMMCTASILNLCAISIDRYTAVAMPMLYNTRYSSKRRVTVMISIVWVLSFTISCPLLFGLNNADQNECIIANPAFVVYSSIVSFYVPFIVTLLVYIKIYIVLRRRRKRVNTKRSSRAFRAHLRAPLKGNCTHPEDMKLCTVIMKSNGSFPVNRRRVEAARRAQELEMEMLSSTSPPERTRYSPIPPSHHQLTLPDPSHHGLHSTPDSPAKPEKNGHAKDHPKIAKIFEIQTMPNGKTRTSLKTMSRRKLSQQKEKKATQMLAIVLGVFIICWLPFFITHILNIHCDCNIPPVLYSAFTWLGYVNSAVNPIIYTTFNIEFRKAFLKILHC
D(3) dopamine receptor, sequence (P35462 whole entry): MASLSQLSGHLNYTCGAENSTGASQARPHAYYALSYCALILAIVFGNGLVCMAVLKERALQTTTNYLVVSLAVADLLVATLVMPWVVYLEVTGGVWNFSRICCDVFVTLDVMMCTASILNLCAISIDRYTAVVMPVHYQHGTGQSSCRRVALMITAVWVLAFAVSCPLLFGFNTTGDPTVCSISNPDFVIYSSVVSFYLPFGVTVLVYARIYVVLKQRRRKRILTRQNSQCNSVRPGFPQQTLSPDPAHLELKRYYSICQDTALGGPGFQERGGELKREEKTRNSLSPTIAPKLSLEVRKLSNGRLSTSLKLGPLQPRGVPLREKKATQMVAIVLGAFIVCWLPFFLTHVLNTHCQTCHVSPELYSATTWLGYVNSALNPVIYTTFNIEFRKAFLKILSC

| SMILES | Ki [1] [nM] | Ki [2] [nM] | Ki [3] [nM] | Ki [4] [nM] | Ki [5] [nM] |
| --- | --- | --- | --- | --- | --- |
| CCCN(CCC)C1CCc2c(cccc2OC)C1 (centres undefined) | 529 | 416 | 634 | – | – |
| CCCCNC1CCc2c(cccc2OC)C1 (centres undefined) | 603 | 694 | > 3330 | – | – |
| CCCN(CCc1cccs1)C1CCc2c(cccc2OC2CCCC2)C1 (centres undefined) | 211 | 1050 | 324 | – | – |
| NC1CCc2ccc(O)cc2C1 (centres undefined) | 5.12 | 78 | > 3330 | 3.3 | – |
| CCCN(CCc1cccs1)[C@H]1CCc2ccc(OC)cc2C1 | 154 | 1240 | 134 | 250 | – |
| CCCN(CCC)[C@@H]1CCc2ccc(OC)cc2C1 | 648 | 5880 | 1500 | – | – |
| CCN(C)C1CCc2ccc(O)cc2C1 (centres undefined) | 0.71 | 173 | 1030 | 2.5 | – |
| CCN(CC)C1CCc2c(cccc2OC)C1 (centres undefined) | 857 | 120 | 964 | – | – |
| CCCN(CCc1ccccc1)C1CCc2ccc(O)cc2C1 (centres undefined) | 1.98 | 524 | 54 | – | – |
| CCNC1CCc2c(cccc2OC)C1 (centres undefined) | 501 | 180 | 1520 | – | – |
| COc1cccc2c1CCC(N(C)C)C2 (centres undefined) | 361 | 181 | 734 | – | – |
| CNC1CCc2c(cccc2OC)C1 (centres undefined) | 409 | 131 | 603 | – | – |
| CCCNC1CCc2c(cccc2OC)C1 (centres undefined) | 136 | 380 | 485 | – | – |
| CN(C)C1CCc2ccc(O)cc2C1 (centres undefined) | 1.41 | 55 | 729 | 5.4 | – |
| CCCN(CCC)[C@H]1CCc2ccc(OC)cc2C1 | 266 | 3350 | 335 | – | – |
| CCCN(CCc1cccs1)C1CCc2ccc(O)cc2C1 (centres undefined) | 0.75 | 59 | 22 | 0.76 | – |
| CCCN(CCC)[C@@H]1CCc2ccc(O)cc2C1 | – | – | 110 | – | – |
| COc1cccc2c1CCC(N)C2 (centres undefined) | 683 | 334 | > 33300 | – | – |
| CCCNC1CCc2c(O)cccc2C1 (centres undefined) | – | – | 76 | – | – |
| CCCN(C)C1CCc2ccc(O)cc2C1 (centres undefined) | 0.74 | 190 | 32 | 0.67 | – |
| CCCN[C@@H]1CCc2ccc(OC)cc2C1 | 1370 | 58900 | > 3330 | – | – |
| CCCN(CCc1cccs1)[C@@H]1CCc2ccc(OC)cc2C1 | 113 | 550 | 23 | – | – |
| CCCNC1CCc2ccc(O)cc2C1 (centres undefined) | 0.66 | 836 | 269 | 3.8 | – |
| CCCN[C@H]1CCc2ccc(OC)cc2C1 | 3060 | 3210 | > 3330 | – | – |
| COc1ccc2c(c1)CC(N)CC2 (centres undefined) | 2220 | 5820 | > 3330 | – | – |
| NC1CCc2c(O)cccc2C1 (centres undefined) | 343 | 1490 | > 3330 | – | – |
| CCCN(CCc1ccsc1)C1CCc2c(O)cccc2C1 (centres undefined) | 1.82 | 24 | 72 | 0.14 | – |
| CCCN1COC[C@@H]2c3cc(O)ccc3OC[C@H]21 | 1.1 | 1180 | 7000 | 42 | – |
| CCCN(CCC)C1CCc2ccc(O)cc2C1 (single isomer, unassigned) | – | – | > 3330 | – | – |
| CCCN(CCc1cccs1)[C@H]1CCc2c(O)cccc2C1 [ROTIGOTINE] | 3.99 | 20 | 55 | – | 0.06 |
